Here are results for 20 molecules from US8853258B2, “C-linked hydroxamic acid derivatives useful as antibacterial agents” (Pfizer Inc., priority 2009, dated 2014).

Each structure is given as a SMILES string. ≈ marks a conversion by molar mass, not a printed value.

Data set [1] concerns Pseudomonas aeruginosa UI-18: Wild-type (PA-7). The data set can be described thus: MIC determination (CLSI), PA-7. Type of data set: cell-based. The following applies: Pseudomonas aeruginosa; Table 3; read-out: PA-7 MIC. Put shortly:
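MIC by dilution method per CLSI M7-A7 and M100-S18 guidelines. Strain: wild-type Pseudomonas aeruginosa UI-18.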

The test system of data set [2] is Klebsiella pneumoniae: Ciprofloxacin-resistant isolate, ESBL, clinical isolate (KP-3700). The data set can be described thus: MIC determination (CLSI), KP-3700. The class given is cell-based. In outline:
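MIC measured by broth dilution according to CLSI M7-A7 and M100-S18 standards. Test organism was a ciprofloxacin-resistant, ESBL-expressing clinical isolate.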

In data set [3] the target is Pseudomonas aeruginosa LpxC enzyme (Pseudomonas aeruginosa (strain ATCC 15692 / DSM 22644 / CIP 104116 / JCM 14847 / LMG 12228 / 1C / PRS 101 / PAO1), UniProt P47205). In words: IC50 Assay, LpxC Enzyme from P. aeruginosa (PA LpxC Enzyme IC50). Type of data set: biochemical. The following applies: Table 3; read-out: PA LpxC enzyeme IC^50. Put shortly: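 Reaction run 1 h then stopped with 1N HCl. Conversion measured by RapidFire high-throughput mass spectrometry. IC50 derived from percent conversion relative to a no-enzyme control.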

Data set [4] deals with Acinetobacter baumanii/haemolyticus: Multidrug-resistant clinical isolate (AB-3167). The data set can be described thus: MIC determination (CLSI), AB-3167. The following applies: Acinetobacter baumannii; Table 3; read-out: AB-3167 MIC. Type of data set: cell-based. In outline:
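Multidrug-resistant clinical isolate AB-3167 (A. baumannii/haemolyticus) tested for minimum inhibitory concentration following CLSI dilution susceptibility standards M7-A7 and M100-S18.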

Data set [5] relates to Escherichia coli EC-1: VOGEL, mouse virulent. In words: MIC determination (CLSI), EC-1. Type of data set: cell-based. The conditions noted are these: Escherichia coli, read-out: EC-1 MIC. Put shortly:
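E. coli Vogel, a mouse-virulent strain (EC-1), was tested. MICs were set by dilution susceptibility testing per CLSI standards M7-A7/M100-S18.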

A word on the MIC: it is the least concentration at which growth counts as inhibited. Consider `C#CCOc1ccc(CCC(C)(C(=O)NO)S(C)(=O)=O)cc1` (stereo not shown) [Example 265, N-hydroxy-2-methyl-2-(methylsulfonyl)-4-[4-(prop-2-yn-1-yloxy)phenyl)butanamide], for which the figures for the MIC in data set [1], in data set [4] and in data set [5] were 16 µg/mL (≈ 49.2 µM), at least 64 µg/mL and at least 64 µg/mL, respectively. The “KP-3700 MIC” value in data set [2] is recorded as “≧64 mg/L”. Further, the IC50 in data set [3] amounted to 105 nM.

Take `CC(C)CCc1noc(COc2ccc(CCC(C)(C(=O)NO)S(C)(=O)=O)cc2)n1` (stereo not shown) [Example 272, N-hydroxy-2-methyl-4-(4-{[3-(3-methylbutyl)-1,2,4-oxadiazol-5-yl]methoxy}phenyl)-2-(methylsulfonyl)butanamide]: the MIC in data set [1] was at least 64 µg/mL; in data set [4], at least 64 µg/mL; in data set [5] it was 32 µg/mL (≈ 72.8 µM). The “KP-3700 MIC” value in data set [2] was “≧64 mg/L”. Also, the IC50 in data set [3] turned out to be 1.54 nM.

Take `Cc1cccc(-c2nc(COc3ccc(CCC(C)(C(=O)NO)S(C)(=O)=O)cc3)c(C)o2)c1` (stereo not shown) [Example 278, N-hydroxy-2-methyl-4-(4-{[5-methyl-2-(3-methylphenyl)-1,3-oxazol-4-yl]methoxy}phenyl)-2-(methylsulfonyl)butanamide]: the MIC in data set [1] is at least 64 µg/mL; in data set [4] it was at least 64 µg/mL; in data set [5], 32 µg/mL (≈ 67.7 µM). For the same molecule, the “KP-3700 MIC” value in data set [2] was “≧64 mg/L”. For the same molecule, the IC50 in data set [3] is 10.4 nM.

In the case of `CC(CCc1ccc(OCc2cc(F)ccc2C(F)(F)F)cc1)(C(=O)NO)S(C)(=O)=O` (stereo not shown) [Example 280, 4-(4-{[5-fluoro-2-(trifluoromethyl)benzyl]oxy}phenyl)-N-hydroxy-2-methyl-2-(methylsulfonyl)butanamide], the values for the MIC in data set [1], in data set [4] and in data set [5] were 32 µg/mL (≈ 69 µM), 32 µg/mL (≈ 69 µM) and 8 µg/mL (≈ 17.3 µM), respectively. Moreover, the “KP-3700 MIC” value in data set [2] worked out at 32 µg/mL. For the same molecule, in data set [3], the IC50 came to 13.8 nM.

For the molecule `CC(CCc1ccc(OCCC2CCOCC2)cc1)(C(=O)NO)S(C)(=O)=O` (stereo not shown) [Example 281, N-hydroxy-2-methyl-2-(methylsulfonyl)-4-{4-[2-(tetrahydro-2H-pyran-4-yl)ethoxy]phenyl}butanamide], the minimal inhibitory concentration (MIC) in data set [1] was 32 µg/mL (≈ 80.1 µM); in data set [4] it was at least 64 µg/mL; in data set [5], at least 64 µg/mL. For the same molecule, the “KP-3700 MIC” value in data set [2] was “≧64 mg/L”. Further, in data set [3], the IC50 worked out at 6.77 nM.

As for `CC(Oc1ccc(CCC(C)(C(=O)NO)S(C)(=O)=O)cc1)c1ccccc1` (stereo not shown) [Example 282, N-hydroxy-2-methyl-2-(methylsulfonyl)-4-[4-(1-phenylethoxy)phenyl]butanamide], the MIC was at least 64 µg/mL in data set [1], 32 µg/mL (≈ 81.7 µM) in data set [4] and 8 µg/mL (≈ 20.4 µM) in data set [5]. Also, the “KP-3700 MIC” value in data set [2] is “≧64 mg/L”. Also, in data set [3], the IC50 stood at 9.55 nM.

In the case of `Cc1ccc(Cc2noc(COc3ccc(CCC(C)(C(=O)NO)S(C)(=O)=O)cc3)n2)cc1` (stereo not shown) [Example 283, N-hydroxy-2-methyl-4-(4-{[3-(4-methylbenzyl)-1,2,4-oxadiazol-5-yl]methoxy}phenyl)-2-(methylsulfonyl)butanamide], the MIC in data set [1] is at least 64 µg/mL; in data set [4], at least 64 µg/mL; in data set [5], 16 µg/mL (≈ 33.8 µM). Also, the “KP-3700 MIC” value in data set [2] is reported as “≧64 mg/L”. For the same molecule, the IC50 in data set [3] was 6.32 nM.

For `CC(CCc1ccc(OCc2ccc(F)cc2C#N)cc1)(C(=O)NO)S(C)(=O)=O` (stereo not shown) [Example 284, 4-{4-[(2-cyano-4-fluorobenzyl)oxy]phenyl}-N-hydroxy-2-methyl-2-(methylsulfonyl)butanamide], the minimal inhibitory concentration (MIC) in data set [1] was at least 64 µg/mL; in data set [4], at least 64 µg/mL; in data set [5], 32 µg/mL (≈ 76.1 µM). Also, the “KP-3700 MIC” value in data set [2] is recorded as “≧64 mg/L”. For the same molecule, the IC50 in data set [3] stood at 5.36 nM.

With `CC(CCc1ccc(OCc2ccccc2C#N)cc1)(C(=O)NO)S(C)(=O)=O` (stereo not shown) [Example 285, 4-{4-[(2-cyanobenzyl)oxy]phenyl}-N-hydroxy-2-methyl-2-(methylsulfonyl)butanamide], the values for the MIC in data set [1], in data set [4] and in data set [5] were 32 µg/mL (≈ 79.5 µM), at least 64 µg/mL and 32 µg/mL (≈ 79.5 µM), respectively. In addition, the “KP-3700 MIC” value in data set [2] is reported as “≧64 mg/L”. In addition, the IC50 in data set [3] stood at 10 nM.

In the case of `Cc1ccc(OCc2noc(COc3ccc(CCC(C)(C(=O)NO)S(C)(=O)=O)cc3)n2)cc1` (stereo not shown) [Example 286, N-hydroxy-2-methyl-4-[4-({3-[(4-methylphenoxy)methyl]-1,2,4-oxadiazol-5-yl}methoxy)phenyl]-2-(methylsulfonyl)butanamide], the MIC in data set [1] is at least 64 µg/mL; in data set [4], at least 64 µg/mL; in data set [5], 32 µg/mL (≈ 65.4 µM). For the same molecule, the “KP-3700 MIC” value in data set [2] is “≧64 mg/L”. In data set [3], the IC50 was 11.9 nM.

With `Cc1cccnc1COc1ccc(CCC(C)(C(=O)NO)S(C)(=O)=O)cc1` (stereo not shown) [Example 287, N-hydroxy-2-methyl-4-{4-[(3-methylpyridin-2-yl)methoxy]phenyl}-2-(methylsulfonyl)butanamide], the MIC in data set [1] was 16 µg/mL (≈ 40.8 µM); in data set [4], at least 64 µg/mL; in data set [5] it was at least 64 µg/mL. Further, in data set [2], the “KP-3700 MIC” value was “≧64 mg/L”. Besides, the IC50 in data set [3] amounted to 3.14 nM.

Regarding `CC(CCc1ccc(OCc2ccc(OC(F)(F)F)cc2)cc1)(C(=O)NO)S(C)(=O)=O` (stereo not shown) [Example 288, N-hydroxy-2-methyl-2-(methylsulfonyl)-4-(4-{[4-(trifluoromethoxy)benzyl]oxy}phenyl)butanamide], the MIC was 8 µg/mL (≈ 17.3 µM) in data set [1], 4 µg/mL (≈ 8.67 µM) in data set [4] and 4 µg/mL (≈ 8.67 µM) in data set [5]. In addition, the “KP-3700 MIC” value in data set [2] was 8 µg/mL. For the same molecule, the IC50 in data set [3] is 1.53 nM.

On to `Cc1cccc(Cc2noc(COc3ccc(CCC(C)(C(=O)NO)S(C)(=O)=O)cc3)n2)c1` (stereo not shown) [Example 289, N-hydroxy-2-methyl-4-(4-{[3-(3-methylbenzyl)-1,2,4-oxadiazol-5-yl]methoxy}phenyl)-2-(methylsulfonyl)butanamide], for which the MIC in data set [1] is at least 64 µg/mL; in data set [4] it was at least 64 µg/mL; in data set [5], 32 µg/mL (≈ 67.6 µM). Moreover, the “KP-3700 MIC” value in data set [2] is listed as “≧64 mg/L”. In addition, the IC50 in data set [3] is 10.4 nM.

For `Cc1nncn1-c1ccc(OCCOc2ccc(CCC(C)(C(=O)NO)S(C)(=O)=O)cc2)cc1` (stereo not shown) [Example 290, N-hydroxy-2-methyl-2-(methylsulfonyl)-4-(4-{2-[4-(3-methyl-4H-1,2,4-triazol-4-yl)phenoxy]ethoxy}phenyl)butanamide], the MIC is at least 64 µg/mL in data set [1], at least 64 µg/mL in data set [4] and 8 µg/mL (≈ 16.4 µM) in data set [5]. Further, in data set [2], the “KP-3700 MIC” value turned out to be 32 µg/mL. In addition, the IC50 in data set [3] is 3.56 nM.

For the molecule `Cc1ccc(F)c(-c2noc(COc3ccc(CCC(C)(C(=O)NO)S(C)(=O)=O)cc3)n2)c1` (stereo not shown) [Example 291, 4-(4-{[3-(2-fluoro-5-methylphenyl)-1,2,4-oxadiazol-5-yl]methoxy}phenyl)-N-hydroxy-2-methyl-2-(methylsulfonyl)butanamide], the figures for the MIC in data set [1], in data set [4] and in data set [5] were at least 64 µg/mL, at least 64 µg/mL and 16 µg/mL (≈ 33.5 µM), respectively. Besides, in data set [2], the “KP-3700 MIC” value is on record as “≧64 mg/L”. Moreover, the IC50 in data set [3] amounted to 9.27 nM.

In the case of `CC(C)CCOc1ccc(CCC(C)(C(=O)NO)S(C)(=O)=O)cc1` (stereo not shown) [Example 292, N-hydroxy-2-methyl-4-[4-(3-methylbutoxy)phenyl]-2-(methylsulfonyl)butanamide], the minimal inhibitory concentration (MIC) in data set [1] amounted to 8 µg/mL (≈ 22.4 µM); in data set [4] it was 16 µg/mL (≈ 44.8 µM); in data set [5], 16 µg/mL (≈ 44.8 µM). For the same molecule, the “KP-3700 MIC” value in data set [2] is listed as “≧64 mg/L”. The IC50 in data set [3] turned out to be 1.11 nM.

With `CC(CCc1ccc(OCc2c(F)cc(F)cc2F)cc1)(C(=O)NO)S(C)(=O)=O` (stereo not shown) [Example 293, N-hydroxy-2-methyl-2-(methylsulfonyl)-4-{4-[(2,4,6-trifluorobenzyl)oxy]phenyl}butanamide], the minimum inhibitory concentration (MIC) is 4 µg/mL (≈ 9.27 µM) in data set [1], 32 µg/mL (≈ 74.2 µM) in data set [4] and 4 µg/mL (≈ 9.27 µM) in data set [5]. Further, the “KP-3700 MIC” value in data set [2] amounted to 32 µg/mL. Besides, the IC50 in data set [3] came to 0.955 nM.

For the molecule `CC(CCc1ccc(OCc2ccc(F)cc2F)cc1)(C(=O)NO)S(C)(=O)=O` (stereo not shown) [Example 294, 4-{4-[(2,4-difluorobenzyl)oxy]phenyl}-N-hydroxy-2-methyl-2-(methylsulfonyl)butanamide], the MIC in data set [1] was 4 µg/mL (≈ 9.67 µM); in data set [4] it was 32 µg/mL (≈ 77.4 µM); in data set [5] it was 4 µg/mL (≈ 9.67 µM). Besides, the “KP-3700 MIC” value in data set [2] stood at 16 µg/mL. For the same molecule, in data set [3], the IC50 was determined as 0.992 nM.

Consider `CCCCCc1noc(COc2ccc(CCC(C)(C(=O)NO)S(C)(=O)=O)cc2)n1` (stereo not shown) [Example 295, N-hydroxy-2-methyl-2-(methylsulfonyl)-4-{4-[(3-pentyl-1,2,4-oxadiazol-5-yl)methoxy]phenyl}butanamide], for which the MIC in data set [1] is at least 64 µg/mL; in data set [4] it was at least 64 µg/mL; in data set [5], 32 µg/mL (≈ 72.8 µM). In data set [2], the “KP-3700 MIC” value is on record as “≧64 mg/L”. Also, the IC50 in data set [3] came out at 12.5 nM.

For the molecule `CC(CCc1ccc(OCc2cccc3cccnc23)cc1)(C(=O)NO)S(C)(=O)=O` (stereo not shown) [Example 296, N-hydroxy-2-methyl-2-(methylsulfonyl)-4-[4-(quinolin-8-ylmethoxy)phenyl]butanamide], the values for the MIC in data set [1], in data set [4] and in data set [5] were at least 64 µg/mL, 32 µg/mL (≈ 74.7 µM) and 8 µg/mL (≈ 18.7 µM), respectively. Besides, the “KP-3700 MIC” value in data set [2] turned out to be 16 µg/mL. Further, the IC50 in data set [3] turned out to be 15.8 nM.
